Results reported in ChEMBL document CHEMBL3046471, “Evaluation of the anti-inflammatory activity of some pyrrolo[2,3-d]pyrimidine derivatives” (2013).

Tests used:
Format in all cases: functional
Rattus norvegicus [1] = assay: Anti-inflammatory activity in sc dosed Sprague-Dawley Rattus norvegicus (rat) assessed as inhibition of carrageenan-induced paw edema administered at 1 hr prior to carrageenan injection measured at 4 hr post-carrageenan challenge by water plethysmometer
Rattus norvegicus [2] = assay: Anti-inflammatory activity in sc dosed Sprague-Dawley Rattus norvegicus (rat) assessed as inhibition of carrageenan-induced paw edema administered at 1 hr prior to carrageenan injection measured at 3 hr post-carrageenan challenge by water plethysmometer
Rattus norvegicus [3] = assay: Anti-inflammatory activity in sc dosed Sprague-Dawley Rattus norvegicus (rat) assessed as inhibition of carrageenan-induced paw edema administered at 1 hr prior to carrageenan injection measured at 2 hr post-carrageenan challenge by water plethysmometer
Rattus norvegicus [4] = assay: Anti-inflammatory activity in sc dosed Sprague-Dawley Rattus norvegicus (rat) assessed as inhibition of carrageenan-induced paw edema administered at 1 hr prior to carrageenan injection measured at 1 hr post-carrageenan challenge by water plethysmometer
Further: test concentration or dose not given here.

| SMILES | inhibition (INH) (Rattus norvegicus [1]) | inhibition (INH) (Rattus norvegicus [2]) | inhibition (INH) (Rattus norvegicus [3]) | inhibition (INH) (Rattus norvegicus [4]) |
| --- | --- | --- | --- | --- |
| Cc1ccc(-n2c(-c3ccccc3)c(-c3ccccc3)c3c2ncn2cnnc32)cc1 | 44.44% | 15.07% | 0% | 0% |
| Cc1ccc(-n2c(-c3ccccc3)c(-c3ccccc3)c3c2ncn2c(C)nnc32)cc1 | 23.81% | 16.91% | 10% | 7.39% |
| COc1ccc(-n2cc(-c3ccccc3)c3c(-n4nc(C)cc4C)ncnc32)cc1 | 61.9% | 35.66% | 23.85% | 7.82% |
| Cc1ccc(-n2c(-c3ccccc3)c(-c3ccccc3)c3c(Cl)ncnc32)cc1 | 28.59% | 31.43% | 10% | 3.92% |
| COc1ccc(-n2c(-c3ccccc3)c(-c3ccccc3)c3c(Cl)ncnc32)cc1 | 45.39% | 33.64% | 0% | 0% |
| Cc1ccc(-n2cc(-c3ccccc3)c3c(Cl)ncnc32)cc1 | 18.25% | 31.25% | 1.92% | 1.3% |
| COc1ccc(-n2cc(-c3ccccc3)c3c(Cl)ncnc32)cc1 | 18.89% | 32.9% | 17.3% | 13.4% |
| Cc1ccc(-n2c(-c3ccccc3)c(-c3ccccc3)c3c(NN)ncnc32)cc1 | 18.57% | 29.6% | 0% | 0% |
| COc1ccc(-n2c(-c3ccccc3)c(-c3ccccc3)c3c(NN)ncnc32)cc1 | 62.38% | 61.4% | 16.92% | 13.48% |
| Cc1ccc(-n2cc(-c3ccccc3)c3c(NN)ncnc32)cc1 | 39.21% | 45.4% | 0% | 0% |
| COc1ccc(-n2cc(-c3ccccc3)c3c(NN)ncnc32)cc1 | 50.26% | 41.73% | 8.85% | 23.04% |
| COc1ccc(-n2c(-c3ccccc3)c(-c3ccccc3)c3c2ncn2cnnc32)cc1 | 47.62% | 27.94% | 15.77% | 8.69% |
| Cc1ccc(-n2cc(-c3ccccc3)c3c2ncn2cnnc32)cc1 | 28.57% | 10.48% | 0% | 0% |
| COc1ccc(-n2cc(-c3ccccc3)c3c2ncn2cnnc32)cc1 | 36.19% | 33.46% | 0% | 0% |
| Cc1ccc(-n2c(-c3ccccc3)c(-c3ccccc3)c3c2ncn2c(=S)[nH]nc32)cc1 | 23.81% | 17.27% | 10.38% | 0% |
| COc1ccc(-n2c(-c3ccccc3)c(-c3ccccc3)c3c2ncn2c(=S)[nH]nc32)cc1 | 34.6% | 19.49% | 20.38% | 7.39% |
| Cc1ccc(-n2cc(-c3ccccc3)c3c2ncn2c(=S)[nH]nc32)cc1 | 39.21% | 33.8% | 19.23% | 3.04% |
